Results published in patent publication US10934277B2, “Enantiomerically purified GPER agonist for use in treating disease states and conditions” (Linnaeus Therapeutics, Inc., priority 2018, dated 2021).
Values joined by “and” are separate entries in the source; they are usually repeats but may differ in a detail not shown here. Equal entries are not always repeated.

Tests used:
[1] = biological target: T1, CYP2C8 (Homo sapiens, UniProt P10632); assay: in vitro; assay type: in vitro ADME
T1 sequence (P10632 1-490): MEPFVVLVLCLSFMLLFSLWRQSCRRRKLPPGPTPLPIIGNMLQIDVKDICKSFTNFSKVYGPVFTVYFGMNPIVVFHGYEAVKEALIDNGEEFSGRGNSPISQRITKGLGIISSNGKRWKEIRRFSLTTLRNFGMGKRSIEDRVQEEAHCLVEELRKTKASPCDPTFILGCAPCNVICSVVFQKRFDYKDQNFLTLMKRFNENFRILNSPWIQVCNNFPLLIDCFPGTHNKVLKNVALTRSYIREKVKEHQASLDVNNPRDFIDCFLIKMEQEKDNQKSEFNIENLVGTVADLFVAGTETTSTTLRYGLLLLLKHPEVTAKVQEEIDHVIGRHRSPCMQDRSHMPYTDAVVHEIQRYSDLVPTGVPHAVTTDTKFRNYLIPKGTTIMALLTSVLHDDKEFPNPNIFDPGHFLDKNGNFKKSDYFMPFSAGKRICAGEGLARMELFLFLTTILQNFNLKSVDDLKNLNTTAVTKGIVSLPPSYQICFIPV
Method: (§1) Cytochrome P450 Inhibition (HPLC-UV/VIS and HPLC-MS/MS detection)
(§2) Peak areas corresponding to the metabolite of each substrate were recorded. The percent of control activity was then calculated by comparing the peak area obtained in the presence of the test compound to that obtained in the absence of the test compound. Subsequently, the percent inhibition was calculated by subtracting the percent control activity from 100 for each compound. IC50 values (concentration causing a half-maximal inhibition of control values) were determined by non-linear regression analysis of the concentration-response curve using Hill equation curve fitting.

[2] = biological target: CYP2D6 (Homo sapiens, UniProt P10635); assay: in vitro; assay type: in vitro ADME
Method: as §1, §2

[3] = biological target: OPRM1 (Homo sapiens, UniProt P35372); assay: Off target selectivity assay, OPRM1; assay type: cell-based; details: dose response, concentrations up to 10 μM; read-out: IC50 or EC50 on OPRM1
Method: (§3) Final assay vehicle concentration was 1%.
(§4) For Gi coupled GPCRs, EC80 forskolin was included.
(§5) DMSO concentration for all readouts is ≤0.2%.
(§6) Probenicid was prepared fresh. Cells were loaded with dye prior to testing.

[4] = Plasma concentration of SRR G-1 in rats after oral dosing (LC-MS/MS); assay type: in vivo; details: rat, individual animals (R1-R9); for Plasma Conc.: PO 10 mg/kg, listed as SRR G-1 Free Base
From the text: The results are shown in Tables 22-24 for each respectively.

[5] = biological target: CYP2C9 (Homo sapiens, UniProt P11712); assay: in vitro; assay type: in vitro ADME
Method: as §1, §2

[6] = biological target: T2, HTR1A (Homo sapiens, UniProt P08908); assay: Off target selectivity assay, HTR1A; assay type: cell-based; details: dose response, concentrations up to 10 μM; read-out: IC50 or EC50 on HTR1A
T2 sequence (P08908 1-422): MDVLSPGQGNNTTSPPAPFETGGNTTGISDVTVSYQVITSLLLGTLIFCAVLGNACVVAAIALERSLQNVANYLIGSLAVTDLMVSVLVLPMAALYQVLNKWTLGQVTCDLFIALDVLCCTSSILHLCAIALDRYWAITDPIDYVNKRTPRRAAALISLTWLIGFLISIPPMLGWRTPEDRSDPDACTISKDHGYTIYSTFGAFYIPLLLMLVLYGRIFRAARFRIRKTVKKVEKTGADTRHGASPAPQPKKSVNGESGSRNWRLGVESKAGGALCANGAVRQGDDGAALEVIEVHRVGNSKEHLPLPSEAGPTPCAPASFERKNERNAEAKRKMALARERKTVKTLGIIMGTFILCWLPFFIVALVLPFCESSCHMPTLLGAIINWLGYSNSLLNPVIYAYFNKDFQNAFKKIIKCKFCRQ
Method: as §3, §4, §5, §6

[7] = biological target: T3, OCT2 (Homo sapiens, UniProt O15244); assay: Drug transporter fluorometric inhibition, OCT2; assay type: in vitro ADME
T3 sequence (O15244 1-555): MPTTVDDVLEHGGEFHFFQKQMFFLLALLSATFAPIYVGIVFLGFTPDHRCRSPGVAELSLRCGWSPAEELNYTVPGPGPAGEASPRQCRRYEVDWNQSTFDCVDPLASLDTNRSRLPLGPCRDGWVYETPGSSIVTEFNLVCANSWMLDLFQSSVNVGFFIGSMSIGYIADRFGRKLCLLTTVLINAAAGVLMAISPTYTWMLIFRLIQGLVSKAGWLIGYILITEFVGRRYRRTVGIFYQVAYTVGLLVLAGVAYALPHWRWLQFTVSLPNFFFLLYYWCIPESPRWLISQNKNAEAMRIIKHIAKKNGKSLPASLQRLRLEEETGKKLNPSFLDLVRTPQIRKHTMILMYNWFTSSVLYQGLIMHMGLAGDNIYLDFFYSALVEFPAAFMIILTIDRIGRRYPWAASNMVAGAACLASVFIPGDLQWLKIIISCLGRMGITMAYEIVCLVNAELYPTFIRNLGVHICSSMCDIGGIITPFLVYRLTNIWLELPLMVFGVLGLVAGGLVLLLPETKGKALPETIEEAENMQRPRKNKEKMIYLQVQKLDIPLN
Method: Drug transporter (fluorometric inhibition)
The percent of control was calculated using the following equation. The percent of inhibition was calculated by subtracting the percent of control from 100. The IC50 value (concentration causing a half-maximal inhibition of the control value) was determined by non-linear regression analysis of the concentration-response curve using the Hill equation.
Compound is the individual reading in the presence of the test compound. T1 is the mean reading in the absence of the test compound. Background (for P-gp and BCRP) is the mean reading in the presence of the highest effective concentration of the reference inhibitor. Background (for OATP1B1, OATP1B3, OAT1, OAT3, and OCT2) is the mean reading in the absence of both the test compound and the substrate.

Sequence of OPRM1 (P35372 whole entry): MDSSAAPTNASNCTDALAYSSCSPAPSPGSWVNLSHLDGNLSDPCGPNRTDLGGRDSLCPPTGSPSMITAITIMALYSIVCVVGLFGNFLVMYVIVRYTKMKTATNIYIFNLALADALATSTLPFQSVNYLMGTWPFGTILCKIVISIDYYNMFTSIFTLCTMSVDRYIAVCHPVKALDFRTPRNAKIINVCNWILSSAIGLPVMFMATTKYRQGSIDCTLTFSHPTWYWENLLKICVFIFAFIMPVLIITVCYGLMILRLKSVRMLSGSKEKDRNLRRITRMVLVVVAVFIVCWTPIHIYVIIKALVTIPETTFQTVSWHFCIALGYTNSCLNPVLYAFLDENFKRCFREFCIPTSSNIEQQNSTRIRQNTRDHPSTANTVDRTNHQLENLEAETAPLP
Sequence of CYP2D6 (P10635 whole entry, species assumed): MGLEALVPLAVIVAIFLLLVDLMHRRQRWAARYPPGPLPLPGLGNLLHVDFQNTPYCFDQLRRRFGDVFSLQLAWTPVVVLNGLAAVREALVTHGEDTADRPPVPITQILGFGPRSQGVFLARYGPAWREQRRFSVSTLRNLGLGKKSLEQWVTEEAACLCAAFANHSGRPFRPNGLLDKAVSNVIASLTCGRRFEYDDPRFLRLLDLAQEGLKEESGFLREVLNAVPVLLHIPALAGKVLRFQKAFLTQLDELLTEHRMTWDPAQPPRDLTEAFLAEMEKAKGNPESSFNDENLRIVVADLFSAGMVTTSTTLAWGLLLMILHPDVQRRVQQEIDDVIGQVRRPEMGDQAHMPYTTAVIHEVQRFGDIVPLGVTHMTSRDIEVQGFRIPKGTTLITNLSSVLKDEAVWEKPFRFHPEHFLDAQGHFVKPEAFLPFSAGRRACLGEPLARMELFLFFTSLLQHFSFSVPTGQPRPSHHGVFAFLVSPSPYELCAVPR
Sequence of CYP2C9 (P11712 whole entry, species assumed): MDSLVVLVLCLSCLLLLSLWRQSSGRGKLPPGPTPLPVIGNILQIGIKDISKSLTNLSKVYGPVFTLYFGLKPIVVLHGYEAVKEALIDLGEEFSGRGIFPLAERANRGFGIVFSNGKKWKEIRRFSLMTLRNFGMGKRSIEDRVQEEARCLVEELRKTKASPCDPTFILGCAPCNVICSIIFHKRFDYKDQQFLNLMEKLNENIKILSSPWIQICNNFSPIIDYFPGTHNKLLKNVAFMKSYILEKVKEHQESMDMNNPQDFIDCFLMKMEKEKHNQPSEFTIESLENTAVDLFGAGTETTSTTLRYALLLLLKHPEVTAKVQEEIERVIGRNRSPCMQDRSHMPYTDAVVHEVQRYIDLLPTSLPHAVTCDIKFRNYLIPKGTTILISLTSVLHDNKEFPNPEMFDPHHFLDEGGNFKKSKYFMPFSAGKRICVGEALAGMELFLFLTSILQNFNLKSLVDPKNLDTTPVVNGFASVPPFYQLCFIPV

Row | SMILES | inhibition at 10 µM [1] [%] | inhibition at 10 µM [2] [%] | IC50 [3] [µM] | concentration at 1 h ([4]; male, plasma, po, 10 mg/kg, time 1.00 h, read-out: Plasma Conc.) [ng/mL] | concentration at 8 h ([4]; male, plasma, po, 10 mg/kg, time 8.00 h, read-out: Plasma Conc.) [ng/mL] | concentration at 24 h ([4]; male, plasma, po, 10 mg/kg, time 24.0 h, LLOQ 0.100 ng/mL, read-out: Plasma Conc.) [ng/mL] | Plasma Conc. ([4]; time 0.500 h) | Plasma Conc. ([4]; time 1.00 h) | Plasma Conc. ([4]; time 2.00 h) | Plasma Conc. ([4]; time 4.00 h) | Plasma Conc. ([4]; time 8.00 h) | Plasma Conc. ([4]; time 24.0 h, LLOQ 0.100 ng/mL) | inhibition at 10 µM [5] [%] | IC50 [6] [µM] | inhibition at 10 µM [7] [%]
1 | CC(=O)c1ccc2c(c1)[C@@H]1C=CC[C@@H]1[C@H](c1cc3c(cc1Br)OCO3)N2 (single isomer, unassigned) [SRR G-1] | 66.7 | 74.3 | 6.68 | 3.96 | 1.72 | 0.127 | 1.91 ng/mL and 2.60 ng/mL and 1.23 ng/mL | 6.03 ng/mL and 3.15 ng/mL | 2.96 ng/mL and 7.56 ng/mL and 2.71 ng/mL | 2.18 ng/mL and 4.67 ng/mL and 1.39 ng/mL | 1.58 ng/mL and 1.47 ng/mL | 0.169 ng/mL and BQL | – | – | –
2 | CC(=O)c1ccc2c(c1)[C@H]1C=CC[C@H]1[C@@H](c1cc3c(cc1Br)OCO3)N2 [RSS G-1, 1-((3aR,4S,9bS)-4-(6-bromobenzo[d][1,3]dioxol-5-yl)-3a,4,5,9b-tetrahydro-3H-cyclopenta[c]quinolin-8-yl)ethan-1-one] | – | – | – | – | – | – | – | – | – | – | – | – | 50.4 | 2.1 | 53.2
